Calls of active or inactive are those of the source. The rule behind the calls is not given here.
What was measured:
[1] = target: T1, GABA-A receptor; alpha-1/beta-2/gamma-2 (Homo sapiens) (UniProt P14867+P47870+P18507); assay: Activation of recombinant human GABA receptor alpha1beta2gamma2 expressed in CHO cells and measured for 120 secs by FMP dye based FLIPR assay; format: cell-based
[2] = Neurotoxicity in ip dosed Kunming mouse assessed as reduction in equilibrium measured after 30 mins by rotarod test; format: toxicity, organism-based; details: in vivo
Cortical neurone = assay: Antiepileptic actvity in C57BL/6 mouse Primary cortical neuron assessed as reduction in 4-AP-induced excitability measured for 8 mins by Fluo-8/AM staining based FLIPR assay; format: functional, cell-based; details: C57BL/6, Cortical neurone
Mus musculus [3] = assay: Anticonvulsant activity in Kunming mouse assessed as reduction in MES-induced seizure at 30 to 300 mg/kg, ip measured after 30 mins; format: functional, organism-based
Mus musculus [4] = assay: Anticonvulsant activity in Kunming mouse assessed as reduction in ScPTZ-induced seizure at 30 mg/kg, ip administered before 30 mins of ScPTZ stimulation; format: functional, organism-based
Mus musculus [5] = assay: Anticonvulsant activity in Kunming mouse assessed as reduction in ScPTZ-induced seizure at 100 mg/kg, ip administered before 30 mins of ScPTZ stimulation; format: functional, organism-based
Mus musculus [6] = assay: Anticonvulsant activity in Kunming mouse assessed as reduction in ScPTZ-induced seizure at 300 mg/kg, ip administered before 30 mins of ScPTZ stimulation; format: functional, organism-based
Mus musculus [7] = assay: Anticonvulsant activity in ip dosed Kunming mouse assessed as reduction in ScPTZ-induced seizure administered before 30 mins of ScPTZ stimulation; format: functional; details: 0.5 h
[8] = Protective index, ratio of TD50 for neurotoxicity in ip dosed Kunming mouse to ED50 for anticonvulsant activity in ip dosed Kunming mouse; format: toxicity, organism-based; details: in vivo, read-out: Ratio TD50/ED50
[9] = target: T1, GABA-A receptor; alpha-1/beta-2/gamma-2 (Homo sapiens); assay: (§1) Activation of recombinant human GABA receptor alpha1beta2gamma2 expressed in CHO cells in presence of GABA and measured for 120 secs by FMP dye based FLIPR assay; format: cell-based
[10] = target: T2, GABA-A receptor; alpha-1/beta-2/gamma-2 (Homo sapiens, UniProt P14867+P18507+P47870); assay: as §1; format: cell-based
T2 sequence (P14867 whole entry): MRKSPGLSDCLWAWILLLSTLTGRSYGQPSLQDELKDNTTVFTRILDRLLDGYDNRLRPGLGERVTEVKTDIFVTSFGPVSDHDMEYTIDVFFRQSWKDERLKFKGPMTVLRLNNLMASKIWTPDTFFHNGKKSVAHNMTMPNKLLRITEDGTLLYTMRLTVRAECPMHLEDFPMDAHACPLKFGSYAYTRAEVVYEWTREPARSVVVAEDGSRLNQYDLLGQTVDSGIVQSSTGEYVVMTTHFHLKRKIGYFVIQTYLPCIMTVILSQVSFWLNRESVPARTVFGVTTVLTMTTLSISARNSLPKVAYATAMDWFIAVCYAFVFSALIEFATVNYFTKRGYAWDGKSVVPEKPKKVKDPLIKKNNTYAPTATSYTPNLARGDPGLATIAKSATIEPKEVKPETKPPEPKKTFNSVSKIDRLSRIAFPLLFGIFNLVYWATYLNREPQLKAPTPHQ
T2 sequence (P47870 whole entry): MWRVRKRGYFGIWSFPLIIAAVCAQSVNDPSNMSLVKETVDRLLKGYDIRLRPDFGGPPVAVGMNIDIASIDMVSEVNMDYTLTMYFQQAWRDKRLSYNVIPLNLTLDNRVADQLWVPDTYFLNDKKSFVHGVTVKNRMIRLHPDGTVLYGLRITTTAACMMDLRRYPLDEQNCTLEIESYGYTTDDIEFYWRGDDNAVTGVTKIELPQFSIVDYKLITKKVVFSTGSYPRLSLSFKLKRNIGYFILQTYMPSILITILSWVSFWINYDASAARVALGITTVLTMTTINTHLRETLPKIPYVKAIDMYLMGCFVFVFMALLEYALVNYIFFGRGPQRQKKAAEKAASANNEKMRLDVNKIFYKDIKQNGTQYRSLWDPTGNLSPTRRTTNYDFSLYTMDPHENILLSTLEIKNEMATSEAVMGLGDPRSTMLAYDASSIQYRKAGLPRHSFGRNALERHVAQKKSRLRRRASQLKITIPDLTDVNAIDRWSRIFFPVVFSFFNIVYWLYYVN
T2 sequence (P18507 whole entry): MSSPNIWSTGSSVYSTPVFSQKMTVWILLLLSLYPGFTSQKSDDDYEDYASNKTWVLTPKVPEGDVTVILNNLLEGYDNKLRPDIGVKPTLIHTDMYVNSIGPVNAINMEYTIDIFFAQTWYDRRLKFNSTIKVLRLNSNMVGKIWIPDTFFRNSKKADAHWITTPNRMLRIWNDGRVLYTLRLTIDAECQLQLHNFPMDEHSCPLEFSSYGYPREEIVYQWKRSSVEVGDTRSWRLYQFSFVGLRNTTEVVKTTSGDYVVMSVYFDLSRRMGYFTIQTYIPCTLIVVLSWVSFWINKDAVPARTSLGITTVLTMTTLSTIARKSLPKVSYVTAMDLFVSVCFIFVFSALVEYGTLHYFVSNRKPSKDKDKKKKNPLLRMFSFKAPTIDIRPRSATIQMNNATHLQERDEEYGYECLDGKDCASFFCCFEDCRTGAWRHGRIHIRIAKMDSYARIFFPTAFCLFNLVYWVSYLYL

[11] = target: T2, GABA-A receptor; alpha-1/beta-2/gamma-2; assay: Positive allosteric modulation of recombinant human GABA receptor alpha1beta2gamma2 expressed in CHO cells at 30 uM in presence of GABA and measured for 120 secs by FMP dye based FLIPR assay (reference value: 0.25 +/- 0.03 uM); format: cell-based
Mus musculus [12] = species on record: Mus musculus; assay: Inhibition of sodium channel in C57BL/6 mouse primary cortical neurons at 10 uM by manual patch clamp electrophysiology method
Mus musculus [13] = species on record: Mus musculus; assay: Inhibition of sodium channel in C57BL/6 mouse Primary cortical neurons at 100 uM by manual patch clamp electrophysiology method

Cc1ccc(-c2nc3[nH]c(Cc4ccccc4)cc(=O)n3n2)cc1
Activity [1]: inactive | TD50 at 0.5 h [2]: 372 mg/kg | IC50 (Cortical neurone): 334 nM | Activity (Mus musculus [3]): inactive | Activity (Mus musculus [4]): Active | Activity (Mus musculus [5]): Active | Activity (Mus musculus [6]): Active | ED50 (Mus musculus [7]): 41 mg/kg | selectivity ratio [8]: 9.09 | Activity [9]: Dose-dependent effect | EC50 [10]: 12000 nM | EC50 [11]: 240 nM | inhibition (Mus musculus [12]): inactive | inhibition (Mus musculus [13]): Active

From ChEMBL document CHEMBL4312021, “Discovery of [1,2,4]-triazolo [1,5-a]pyrimidine-7(4H)-one derivatives as positive modulators of GABAA1 receptor with potent anticonvulsant activity and low toxicity” (Eur J Med Chem, 2020)
